In publication PMC5984625, “Dynamic structural states of ClpB involved in its disaggregation function” (Nature Communications, 2018) one finds Kd data, which are given here for one molecule.

For this experiment, the target named is T1, ΔN-TClpB (Thermus thermophilus, UniProt Q9RA63).
T1 construct: gene clpB; N-terminal domain deletion (AAA1, M-domain and AAA2 kept); from plasmid pMCB1; expressed in E. coli BL21(DE3) or KRX; purified; hexamer and smaller oligomers
Kind of experiment: fluorescence displacement of mant-ADP. The conditions noted are these: per monomer; competitive binding model; 12.5 μM mant-ADP; Mg-ATP; pH 7.5, 20 mM KCl, 5 mM MgCl2, 25 °C; read-out: apparent Kd.

Each structure is given as a SMILES string.

T1 sequence (Q9RA63 141-854, stated change not applied): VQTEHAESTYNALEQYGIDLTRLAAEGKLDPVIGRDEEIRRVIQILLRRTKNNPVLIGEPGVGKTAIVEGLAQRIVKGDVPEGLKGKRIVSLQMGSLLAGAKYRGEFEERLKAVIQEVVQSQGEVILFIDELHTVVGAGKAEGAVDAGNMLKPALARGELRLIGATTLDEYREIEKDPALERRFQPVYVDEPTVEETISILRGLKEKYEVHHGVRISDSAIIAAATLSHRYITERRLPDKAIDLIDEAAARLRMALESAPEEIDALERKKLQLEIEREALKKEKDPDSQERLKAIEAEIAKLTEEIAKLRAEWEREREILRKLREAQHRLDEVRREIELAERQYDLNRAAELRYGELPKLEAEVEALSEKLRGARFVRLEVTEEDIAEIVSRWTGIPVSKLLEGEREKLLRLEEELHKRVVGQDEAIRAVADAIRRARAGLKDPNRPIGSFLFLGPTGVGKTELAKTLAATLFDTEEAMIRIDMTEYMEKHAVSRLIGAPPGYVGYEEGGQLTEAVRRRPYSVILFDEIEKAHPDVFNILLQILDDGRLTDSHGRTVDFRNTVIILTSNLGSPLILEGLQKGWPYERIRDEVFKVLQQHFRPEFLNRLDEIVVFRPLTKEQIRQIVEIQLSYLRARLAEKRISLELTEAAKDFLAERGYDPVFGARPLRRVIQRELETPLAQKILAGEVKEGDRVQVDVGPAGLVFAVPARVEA

On to `Nc1ncnc2c1ncn2[C@@H]1O[C@H](COP(=O)(O)OP(=O)(O)OP(=O)(O)O)[C@@H](O)[C@H]1O` [ATP], for which the Kd came out at 9.2 µM.
